Source: US8044057B2, “Methods for suppressing an immune response or treating a proliferative disorder” (The United States of America as represented by the …, priority 2003, dated 2011)

Experiments:
recombinant CK2 = biological target: T1, recombinant CK2 (Homo sapiens, UniProt P68400); test: Casein kinase 2 activity kit, 32P incorporation into substrate peptide; type: biochemical
T1 construct: purchased Upstate Biotechnology 17-132 (number of the activity kit, not of the enzyme)
Protocol: (§1) FIGS. 5A-5B are bar graphs showing that LY303511 inhibits the cell cycle by causing combined G1 and G2/M arrest and that LY303511 inhibits CK2 activity. For the data shown in FIG. 5A, PASM cells were cultured in medium with FBS for 48 hours before the addition of 0-100 μM LY303511 without or with raparnycin, 400 ng/ml, for 24 hours. Cells were then harvested and incubated with propidium iodide for 2 hours before counting using a Becton-Dickson FACSCalibur. Data are the means (±SEM) of percentages of cells in G1, S, or G2/M phase of the cell cycle in three experiments with duplicate assays. *p<0.05 vs. DMSO control, or †p<0.05 vs. 10 μM LY303511, by Student's t—test. FIG. 5B is a bar graph showing that LY303511 or LY294002 inhibits CK2 in vitro. As per the manufacturer (Upstate Biotechnologies), 0 or 100 ng of recombinant CK2 were incubated with CK2 substrate peptide and ^32P-γ-ATP for 10 min with 1% DMSO or inhibitors as indicated. Data are the means of values for samples with inhibitors expressed as percentage of that for control, which was (mean±SEM) 0.2±0.03 pmol phosphate/100 ng protein/10 min. Data are from three experiments performed in duplicate. *p<0.05 by Student's t-test when compared to DMSO control.
One specific assay for casein kinase 2 activity is available commercially as a kit from Upstate Biotechnology (New York). The assay is based on phosphorylation of a specific substrate (CK-2 substrate peptide) using the transfer of the gamma-phosphate of ^32P-ATP by casein kinase 2 during a 10 minute incubation at 30° C. The phosphorylated substrate is then separated from the residual ^32P-ATP using P81 phosphocellulose paper, and quantified by scintillation counting.
Casein kinase 2 (CK2) activity (counts per rninute) was measured using a casein kinase 2 activity kit (Upstate Biotechnology catalogue number 17-132) by incubating recombinant 100 ng CK2, magnesium/ATP cocktail (10 mcCi ^32P-garnma-ATP, 0.675 micromoles MgCl2, 4.5 nmoles ATP), and 10 micromoles peptide substrate (arnino acid sequence RRRDDDSDDD (SEQ ID NO: 1) in 50 mcl assay buffer without or with the indicated concentrations of DMSO (1%), LY294002, LY303511, or rapamycin for 10 minutes at 30° C. Assays were stopped with 20 mcl of 40% trichloroacetic acid, and 25 mcl were spotted on P81 phosphocellulose paper squares before washing 3 times with 0.75% phosphoric acid, and once with acetone. 32P incorporation on the substrate peptide was detected by counting the phosphocellulose squares in 5 ml scintillation fluid using a Packard 100 Tri-Carb liquid scintillation counter.
Measurement of casein kinase 2 (CK2) activity: CK2 activity (counts per minute) was measured using a CK2 activity kit (Upstate, Charlottesville, Va.) by incubating 100 ng of recombinant CK2, rnagnesium/ATP cocktail (10 μCi ^32P-gamma-ATP, 0.675 μmol MgCl2, 4.5 nmol ATP), and 10 μmol peptide substrate (amino acid sequence RRRDDDSDDD) in 50 μl assay buffer (20 mM MOPS, pH 7.2, 5 mM EGTA, 25 mM β-glycerol phosphate, 1 mM sodium orthovanadate, 1 mM dithiothreitol) without or with the indicated concentrations of LY294002, LY303511, wortmannin or rapamycin in 1% DMSO for 10 min at 30° C. Assays were stopped with 20 μl of 40% trichloroacetic acid, and samples (25 μl) of supernatant were applied to P81 phosphocellulose paper squares, which were then washed three times with 0.75% phosphoric acid, and once with acetone. ^32P in the substrate peptide was quantified using a Packard 100 Tri-Carb liquid scintillation counter on phosphocellulose squares in 5 ml of scintillation fluid. Activity is expressed as pmol phosphate incorporated per 10 minutes. CK2 activity measured in the presence of inhibitors was divided by that measured for the DMSO control (=100% control).

PASM cells = test: Propidium iodide flow cytometry cell cycle analysis in PASM cells; type: cell-based, human; conditions: 24 hours
Protocol: as §1, with “As per the manufacturer (Upstate Biotechnologies), 0 or 100 ng of recombinant CK2 were incubated with CK2 substrate peptide and ^32P-γ-ATP for 10 min with 1% DMSO or inhibitors as indicated.” left out, “Data are from three experiments performed in duplicate. *p<0.05 by Student's t-test when compared to DMSO control.” left out
In order to investigate the effect of LY303511 on the cell cycle, A549 cells or pulmonary artery smooth muscle cells were grown to sub-confluence in serum-containing media, and incubated with vehicle, 10, or 100 mcM LY303511, without or with Rapamycin (200 ng/ml), for 24 hours. […] The proportion of cells in G1, S, or G2/M phase of the cell cycle for each experimental condition was determined. […]

T1 sequence (P68400 whole entry): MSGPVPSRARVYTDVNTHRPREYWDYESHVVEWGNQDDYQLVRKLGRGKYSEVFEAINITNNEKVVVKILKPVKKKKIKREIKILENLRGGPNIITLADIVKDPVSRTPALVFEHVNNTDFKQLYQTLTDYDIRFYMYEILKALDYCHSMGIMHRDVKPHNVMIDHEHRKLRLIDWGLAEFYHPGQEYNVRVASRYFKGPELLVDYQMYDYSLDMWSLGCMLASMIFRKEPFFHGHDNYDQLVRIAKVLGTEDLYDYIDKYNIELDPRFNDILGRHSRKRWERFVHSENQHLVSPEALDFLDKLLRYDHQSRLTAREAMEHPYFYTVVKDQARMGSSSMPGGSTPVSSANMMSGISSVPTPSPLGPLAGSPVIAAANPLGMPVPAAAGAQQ
T1 sequence (P67870 2-215 partner limits assumed): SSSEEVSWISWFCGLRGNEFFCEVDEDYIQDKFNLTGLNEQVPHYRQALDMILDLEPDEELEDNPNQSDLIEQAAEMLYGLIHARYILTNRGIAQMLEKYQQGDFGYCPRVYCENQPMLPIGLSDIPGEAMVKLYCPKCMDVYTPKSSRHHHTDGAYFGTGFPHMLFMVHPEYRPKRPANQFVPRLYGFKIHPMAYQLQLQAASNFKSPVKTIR

SMILES: O=c1cc(N2CCNCC2)oc2c(-c3ccccc3)cccc12 [LY303511, 2-(4-piperazinyl)-8-phenyl-4H-1-benzopyran-4-one]
- CK2 activity (recombinant CK2; 100 ng recombinant CK2, 10 min at 30° C.): concentration-dependent inhibition of CK2 activity
- preferential inhibition as compared to PI3K (recombinant CK2; P70 S6 kinase and casein kinase 2 versus PI3K): preferentially inhibits P70 S6 kinase and casein kinase 2 as compared to PI3K
- IC50 (recombinant CK2; recombinant CK2 in vitro, read-out: IC50 for casein kinase 2): 10 to 100 µM
- G1 phase cells (G1 arrest) (PASM cells): negligible
- proportion of cells in S phase (PASM cells): reduced the proportion of cells in S phase
